Test results: article PMC9816194, “Use of the head-twitch response to investigate the structure–activity relationships of 4-thio-substituted 2,5-dimethoxyphenylalkylamines” (Psychopharmacology, 2022)
Where two headings read alike, the source gives them in different places.

Assays:
rats [1] = tested on: rats; set-up: method as in Eshleman et al. 2014; Fantegrossi et al. 2005; settings: rats trained to discriminate LSD or DMT; ref Eshleman et al. 2014; Fantegrossi et al. 2005; cited from earlier work
male C57BL/6 J mice [2] = assay: Head-twitch response (HTR), magnetometer coil recording; type: in vivo; settings: for HTR Counts (Mean ± SEM): 30 min; for ED50: Mus musculus, 0.5 h, HTR, 30 min recording, male C57BL/6 J mice; for ED50 / effect on HTR counts (in words): IP; for maximum number of head twitches (mean ± SEM): during the 30-min assessment period; for effect on HTR counts (in words): versus vehicle/baseline
Procedure: Male C57BL/6 J mice (Jackson Laboratory, Bar Harbor, ME) were housed in a vivarium at the University of California San Diego (UCSD), which is an AAALAC-approved animal facility that complies with Federal and State requirements for care and treatment of laboratory animals. The mice (6–8 weeks old) were housed in a climate-controlled room with a reversed light-cycle (lights on at 19:00 h, off at 07:00 h) up to 4 animals per cage. Food and water were provided ad libitum, except during behavioral testing which occurred between 10:00 and 18:00 h. All experiments were conducted according to NIH guidelines and were approved by the UCSD animal care committee.
Head movement was recorded using a head-mounted magnet and a magnetometer coil (Halberstadt and Geyer [2013]). Briefly, mice were anesthetized, a small incision was made in the scalp, and a neodymium magnet was attached to the dorsal surface of the cranium using dental cement. Following a 1–2-week recovery period, behavioral experiments were conducted in a well-lit room with at least 7 days between sessions to avoid any carryover effects. Mice were treated with vehicle or test compound and then placed in a glass cylinder surrounded by a magnetometer coil and activity was recorded for 30 min. All test substances were administered IP dissolved in saline using an injection volume of 5 mL/kg. Coil voltage was filtered (5–10 kHz lowpass), digitized (20 kHz sampling rate), and saved to disk using a Powerlab/8SP with LabChart v 7.3.2 (ADInstruments, Colorado Springs, CO). To detect head twitches, events in the recordings were converted into scalograms using a wavelet transform and then the images were classified using a multistage approach combining the deep convolutional neural network (CNN) ResNet-50 with a support vector machine (SVM) algorithm (Halberstadt [2020]). HTR counts were analyzed using a one-way Welch analysis of variance (ANOVA). Post hoc pairwise comparisons were performed using Dunnett’s test. […] Median effective doses (ED50 values) and 95% confidence intervals were calculated using nonlinear regression (Prism ver. 9.0.2, GraphPad Software Inc, San Diego, CA, USA).

human 5-HT2A receptor [3] = target: T1, human 5-HT2A receptor (Homo sapiens, UniProt P28223); set-up: expressed in transfected cells; host or cells: HEK 293 (transient), membrane preparations; settings: read-out: 5-HT2A Ki, [3H]ketanserin, cited from earlier work
humans = settings: p.o.; ref Shulgin and Shulgin 1991; Trachsel et al. 2013; cited from earlier work
rats [4] = tested on: rats; set-up: method as in Khorana et al. 2004; Li et al. 2010, 2008; settings: ref Khorana et al. 2004, Li et al. 2010, 2008; cited from earlier work
monkeys = tested on: monkeys; set-up: method as in Khorana et al. 2004; Li et al. 2010, 2008; settings: ref Khorana et al. 2004, Li et al. 2010, 2008; cited from earlier work
mice = settings: ref Fantegrossi et al. 2005, cited from earlier work
human 5-HT2A receptor [5] = target: T1, human 5-HT2A receptor; set-up: expressed in transfected cells; host or cells: HEK 293 (transient); method as in Luethi et al. 2018; settings: 5-HT2A calcium flux assays; ref Luethi et al. 2018; cited from earlier work
male C57BL/6 J mice [6] = tested on: male C57BL/6 J mice; set-up: method as in Halberstadt et al. (2019a); settings: HTR, previous experiment using similar methods; ref Halberstadt et al. (2019a); cited from earlier work
[7] = read-out: ED50 µmol/kg (95% CI)

T1 sequence (P28223 whole entry): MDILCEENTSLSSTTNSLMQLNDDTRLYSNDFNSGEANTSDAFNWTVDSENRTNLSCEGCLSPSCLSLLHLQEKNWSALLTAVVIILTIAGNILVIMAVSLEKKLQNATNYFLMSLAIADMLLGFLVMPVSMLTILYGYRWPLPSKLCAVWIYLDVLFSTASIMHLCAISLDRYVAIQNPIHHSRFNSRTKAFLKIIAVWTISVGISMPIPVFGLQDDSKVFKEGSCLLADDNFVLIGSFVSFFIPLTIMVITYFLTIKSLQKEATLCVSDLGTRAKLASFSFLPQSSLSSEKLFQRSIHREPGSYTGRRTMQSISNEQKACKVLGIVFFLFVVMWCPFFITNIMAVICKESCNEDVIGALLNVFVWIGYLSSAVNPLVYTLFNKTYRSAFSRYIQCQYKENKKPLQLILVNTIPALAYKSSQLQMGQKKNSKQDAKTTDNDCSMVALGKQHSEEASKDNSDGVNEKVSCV

Structure (SMILES): CCSc1cc(OC)c(CCN)cc1OC.Cl [Compound 2C-T-2, 2,5-dimethoxy-4-ethylthiophenethylamine hydrochloride]
- substitution for training drug (in words) (rats [1]): partial generalization
- HTR Counts (Mean ± SEM) (male C57BL/6 J mice [2]; 0.1 mg/kg IP): 12.2 ± 1.9
- HTR Counts (Mean ± SEM) (male C57BL/6 J mice [2]; 0.3 mg/kg IP): 28.4 ± 4.7
- HTR Counts (Mean ± SEM) (male C57BL/6 J mice [2]; 1 mg/kg IP): 65.2 ± 5.9
- HTR Counts (Mean ± SEM) (male C57BL/6 J mice [2]; 3 mg/kg IP): 36.8 ± 11.5
- ED50 (male C57BL/6 J mice [2]; [7]): 1.44 µmol/kg
- ED50 (male C57BL/6 J mice [2]; read-out: ED50 mg/kg (95% CI)): 0.4 mg/kg
- maximum number of head twitches (mean ± SEM) (male C57BL/6 J mice [2]): 65.2 ± 5.9
- Ki (human 5-HT2A receptor [3]; ref Rickli et al. (2015)): 9 nM

Structure (SMILES): CCCSc1cc(OC)c(CCN)cc1OC.Cl [Compound 2C-T-7, 2,5-dimethoxy-4-n-propylthiophenethylamine hydrochloride]
- Human active dose range (humans): 10 to 30 mg
- effects in DOM-trained animals (in words) (rats [4]): hallucinogen-like effects
- substitution for training drug (in words) (rats [1]): partial generalization
- effects in DOM-trained animals (in words) (monkeys): hallucinogen-like effects
- HTR Counts (Mean ± SEM) (male C57BL/6 J mice [2]; 0.1 mg/kg IP): 11.8 ± 1.3
- HTR Counts (Mean ± SEM) (male C57BL/6 J mice [2]; 0.3 mg/kg IP): 18.4 ± 3.5
- HTR Counts (Mean ± SEM) (male C57BL/6 J mice [2]; 1 mg/kg IP): 70.2 ± 10.6
- HTR Counts (Mean ± SEM) (male C57BL/6 J mice [2]; 3 mg/kg IP): 58.6 ± 9.7
- ED50 (male C57BL/6 J mice [2]; [7]): 2.12 µmol/kg
- ED50 (male C57BL/6 J mice [2]; read-out: ED50 mg/kg (95% CI)): 0.62 mg/kg
- maximum number of head twitches (mean ± SEM) (male C57BL/6 J mice [2]): 70.2 ± 10.6
- Ki (human 5-HT2A receptor [3]; ref Luethi et al. (2018)): 5.3 nM
- HTR after pretreatment with 5-HT2A antagonist M100907 (in words) (mice; mice pretreated with M100907): blocked
- induction of HTR (in words) (mice; mice): induce the head-twitch response

Structure (SMILES): COc1cc(SCc2ccccc2)c(OC)cc1CCN.Cl [Compound 2C-T-27, 4-benzylthio-2,5-dimethoxyphenethylamine hydrochloride]
- 5-HT2A agonist efficacy (in words) (human 5-HT2A receptor [5]): low efficacy partial agonists
- HTR Counts (Mean ± SEM) (male C57BL/6 J mice [2]; 1.5 mg/kg IP): 6.0 ± 1.6
- HTR Counts (Mean ± SEM) (male C57BL/6 J mice [2]; 3 mg/kg IP): 9.0 ± 0.8
- HTR Counts (Mean ± SEM) (male C57BL/6 J mice [2]; 6 mg/kg IP): 12.8 ± 2.0
- HTR Counts (Mean ± SEM) (male C57BL/6 J mice [2]; 12 mg/kg IP): 10.8 ± 3.6
- HTR Counts (Mean ± SEM) (male C57BL/6 J mice [2]; 24 mg/kg IP): 5.4 ± 2.0
- ED50 (male C57BL/6 J mice [2]; [7]): 7.3 µmol/kg
- ED50 (male C57BL/6 J mice [2]; read-out: ED50 mg/kg (95% CI)): 2.48 mg/kg
- effect on HTR counts (in words) (male C57BL/6 J mice [2]): relatively weak
- Ki (human 5-HT2A receptor [3]; ref Luethi et al. (2018)): 1.6 nM

Structure (SMILES): COc1cccc(CSc2cc(OC)c(CCN)cc2OC)c1.Cl [Compound 2C-T-33, 2,5-dimethoxy-4-(3-methoxybenzylthio)phenethylamine hydrochloride]
- 5-HT2A agonist efficacy (in words) (human 5-HT2A receptor [5]): low efficacy partial agonists
- HTR Counts (Mean ± SEM) (male C57BL/6 J mice [2]; 0.3 mg/kg IP): 8.6 ± 2.2
- HTR Counts (Mean ± SEM) (male C57BL/6 J mice [2]; 1 mg/kg IP): 5.0 ± 2.8
- HTR Counts (Mean ± SEM) (male C57BL/6 J mice [2]; 3 mg/kg IP): 9.6 ± 1.7
- HTR Counts (Mean ± SEM) (male C57BL/6 J mice [2]; 10 mg/kg IP): 7.8 ± 0.8
- effect on HTR counts (in words) (male C57BL/6 J mice [2]): did not produce a significant increase in HTR counts
- Ki (human 5-HT2A receptor [3]; ref Luethi et al. (2018)): 1.7 nM

Structure (SMILES): COc1cc(OC)c(OC)cc1CC(C)N (stereo not drawn) [TMA-2, 2,4,5-trimethoxyamphetamine]
- ED50 µmol/kg (95% CI) (male C57BL/6 J mice [6]): 12.4 (8.6–17.8) ^[1] µmol/kg
- ED50 mg/kg (95% CI) (male C57BL/6 J mice [6]): 2.79 (1.94–4.01) ^[1] mg/kg
